In US11364231B2, “Methods of treating radiation induced gastrointestinal syndrome (RIGS) and related disease states using YEL002/BCN057” (priority 2017, dated 2022):
Where “and” joins values, the source holds several entries; their conditions need not be identical. Identical values can stand only once. Entries after “also recorded” stand apart in the source; their conditions may differ.

How the values were obtained:
[1] = Solubility in aqueous formulations; format: physicochemical
Protocol: In another embodiment formulation for intravenous, subcutaneous and oral delivery of therapeutic levels of Yel002/BCN057 were developed comprising 30 wt % Captisol (SBE-beta-CD) and 100 mM MSA at pH 4.1 or higher (adjusted with 1.0 N NaOH).

NCI 60 cancer cell lines = experiment: NCI 60 cancer cell line screen; format: cell-based; details: BCN057 10 uM, 48 hours, sulforhodamine B assay
Protocol: BCN057 was first examined in the National Cancer Institute (NCI) 60 cancer cell line platform. Several of these cell lines are known to be positive for dysregulation of the Wnt/b-catenin signaling pathway. […] Next we examined the effect of BCN057 in human colonic tumor derived organoids exposed to irradiation.
100 μL of each cell preparation was tested in accordance with its particular type and density, ranging from 5000-40,000 cells per well in a 96-well microtiter plate, corresponding to their own growth rate. BCN057 was evaluated 10 uM and incubation for 48 hours in a 5% CO2 atmosphere with 100% humidity. Proliferation was assayed using the sulforhodamine B assay with a plate reader to read the optical densities.

[2] = tested on: HEK293 cells having TCF/LEF luciferase reporter construct; experiment: TCF/LEF (Topflash) reporter assay; format: cell-based, human; details: graded doses of BCN057 vs vehicle control, 24 hr
Protocol: To determine the canonical WNT activity of BCN057 HEK293 cells (Signosis, Santa Clara, Calif.) having TCF/LEF luciferase reporter construct were treated with BCN057 or vehicle control or PBS. LiCl (10 mM) treatment was used as positive control for luciferase activity. Luciferase activity was determined 24 hr after using Dual-Luciferase Reporter Assay System (Promega) as per manufacturer's protocol. HEK293 cells having FOPFLASH construct (mutated TCF/LEF-binding site) were used as negative control. HEK293 (human embryonic kidney) cell line was routinely characterized in the lab based on morphology and gene-expression patterns. Cells were confirmed to be free of mycoplasma contamination.

[3] = tested on: C57B16 mice exposed to AIR; experiment: Survival after lethal abdominal irradiation (AIR), RIGS model; details: for survival: BCN057 s.c. 150 mg/kg from 24 hrs post AIR, single dose/day up to day 8, n=25/group, vehicle/untreated died within 15 days
Protocol: FIG. 1A. […] A 3 cm area of the mice containing the GI was irradiated (irradiation field), thus shielding the upper thorax, head and neck as well as lower and upper extremities, protecting a significant portion of the bone marrow, thus inducing predominantly RIGS. Mice exposed to AIR were treated with BCN057 (s.c.) (150 mg/kg of body weight) at 24 hrs post irradiation and continued up to day 8 (single dose/day).
To examine the radio-mitigating role of BCN057 against RIGS, C57B16 mice were exposed to graded doses of abdominal irradiation (AIR) (14-15Gy) after shielding the thorax, head and neck, and extremities, thus protecting the bone marrow.
Male C57B16/6J (Jackson laboratories) mice (five to six weeks old) were maintained ad libitum and all studies were performed under the guidelines and protocols of the Institutional Animal Care and Use Committee of the University of Kansas medical center.
AIR was performed on anaesthetized mice (with a continuous flow 1.5 ml min-1 of 1.5% isoflurane in pure oxygen) using the small animal radiation research platform (SARRP, XStrahl, Surrey, UK). A 2 cm area of the mice containing the GI was irradiated (FIG. 2), thus shielding the upper thorax, head and neck as well as lower and upper extremities, protecting a significant portion of the bone marrow, thus inducing predominantly RIGS. A radiation dose of 14-15 Gy was delivered to the midline of the GI, ensuring homogeneous delivery by performing half of the total irradiation from the anterior-posterior direction and the second half from the posterior-anterior direction. The total irradiation time to deliver the intended dose was calculated with respect to dose rate, radiation field size and fractional depth dose to ensure accurate radiation dosimetry.

[4] = tested on: Lgr5+ve ISC in Lgr5/GFP-IRES-Cre-ERT2 knock-in mice; experiment: Lgr5+ve ISC survival in vivo after AIR; details: 15 Gy AIR then BCN057; beyond 48 hrs post AIR, p<0.001
Source text: To study this effect in vivo, the role of BCN057 in ISC survival was examined by exposing Lgr5/GFP-IRES-Cre-ERT2 knock-in mice to 15 Gy to AIR and then treated with BCN057. Lgr5+ve ISC had disappeared from crypt base within 48 hrs post AIR in untreated mice.

[5] = tested on: human colonic organoid developed from non-malignant tissue; experiment: Irradiated human colonic organoids from non-malignant tissue; format: cell-based
Protocol: FIG. 13. […] Note presence of budding crypt like structure in BCN057 treated group.
To examine the effect of BCN057 on human intestinal, epithelial tissue surgical specimen collected from normal colon at least 10 cm apart from malignant site was used to develop ex vivo crypt organoid. At a dose level of 8 Gy all the budding crypts have been disappeared in the organoids. […] The effect of BCN057 on mRNA level of β-catenin target genes in organoids was also evaluated.

[6] = tested on: C57B16 mice exposed to PBI (BM40); experiment: Survival after partial body irradiation (PBI, BM40); format: in vivo; details: 14.5 Gy PBI (BM40), BCN057 at 24 hrs post PBI; untreated dead within 12 days
Source text: FIG. 1C. Kaplan Meier survival analysis of C57B16 mice (n=25/group) exposed to PBI (BM40). Head & Neck and upper extremities were shielded to spare 40% of bone marrow.
Unless there has been a very focal radiation exposure there will also be involvement of many other organ systems, and their differential responses to various doses of irradiation will impact the gastrointestinal acute radiation syndrome (GI-ARS) dose response. All radiation doses inducing GI-ARS will have a major impact on the bone marrow, which in turn will affect the levels of intestinal inflammation and ability of the body to manage the infection resulting from bacterial translocation through an impaired intestinal mucosal barrier. To investigate involvement of bone marrow in survival outcome upon BCN057 treatment, C57B16 mice were exposed to partial body irradiation (PBI) where 40% of total bone marrow was […] to irradiation after shielding head and fore limbs. Treatment with BCN057 at 24 hrs post exposure of 14.5 Gy PBI rescued 70% of mice from radiation lethality (p<0.0001). However, all the untreated mice were dead within 12 days post-exposure (FIG. 1C).

**Q.** What does the source list for `COc1ccc2cc(-c3nc4ccc(C)cn4c3NCc3ccco3)c(=O)[nH]c2c1` [BCN057, 3-(3((furan-2-ylmethyl)ammo)-6-methylimidazo[1,2-a]pyridine-2-yl)-6-methoxyquinolin-2(1H)-one]?
**A.** solubility ([1]; 30 wt % Captisol (SBE-beta-CD) and 100 mM MSA, at up to pH 4.1 or higher): excellent solubility; solubility in aqueous solution ([1]; physiologically compatible pHs, 100 mM MSA/10% PVP, 100 mM MSA/2% benzyl alcohol/2% NMP, 100 mM MSA/10% ethanol/1% Poloxamer 188): solubalized; proliferative response (NCI 60 cancer cell lines): None of these cells showed any proliferative response; Luciferase activity (WNT activity) [2]: significant increase; also recorded: higher Luciferase activity; also recorded: strong WNT activity; duration of survival post AIR ([3]; 14-15 Gy AIR, BCN057 at 24 hrs post AIR): > 30 days and > 60 days; survival ([3]; 14Gy AIR): 80%; survival ([3]; 15Gy AIR): 60%; symptoms / clinical conditions in surviving treated mice ([3]; after AIR/PBI, observed up to day 30-60 post exposure): without showing any symptoms of RIGS; also recorded: did not develop any clinical conditions; also recorded: without any symptom of gastroenteritis or any other health complications; toxicity to normal mice ([3]; normal (un-irradiated) mice): do not confer any toxicity; Lgr5+ve ISC in jejunal crypts [4]: significant preservation; also recorded: presence of GFP+ve Lgr5+ve ISCs; budding crypts / organoid structure ([5]; 8Gy, BCN057 (20 ug/ml) at 1 hr post irradiation, 72 hrs): complete restitution of organoid structure; also recorded: rescued the organoids from radiation toxicity; Ki67 staining in budding crypt like structure ([5]; 8Gy, BCN057 treated organoids): positive staining; ratio of budding crypt to total number of crypts ([5]; irradiated organoids 4Gy and 8Gy, vs untreated irradiated control): increased; survival [6]: 70%
